In patent US7176216B2, “7-phenylpyrazolopyridine compounds” (Eisai Co., Ltd., priority 2002, dated 2007):
Read-outs that look alike come from different tables or passages of the source.

Key:
[1] = tested on: CRF-induced cAMP production in AtT-20 cells; test: cAMP production inhibition experiment using AtT-20 cells; format: cell-based; settings: Mus musculus, AtT20, CRF 30 nM
Protocol: <cAMP Production Inhibition Experiment Using AtT-20 Cells>
AtT-20 cell is a cell-line derived from mouse pituitary gland tumor, which is known to respond to corticotropin releasing hormone (CRF), to produce cAMP by activation of the intracellular adenylate cyclase system, and to release adrenocorticotropic hormone (ACTH) (Biochem. Biophys. Res. Com., 106, 1364–1371, 1982). In this experiment, AtT-20 cells (1×10^5) were suspended in D-MEM (0.1% FBS) and seeded in a 96-well plate, and then 1 mM (final concentration) phosphodiesterase inhibitor (IBMX, Calbiochem) was added prior to incubation for 30 minutes at 37° C. The diluted test compound solution was then added prior to incubation for 30 minutes at 37° C., and CRF (final concentration: 30 nM) was added prior to further incubation for 30 minutes at 37° C. The cells were collected by centrifugation (1,800 rpm (630×g), 5 minutes), and then lysed with lysis buffer (0.2% dodecyltrimethylammmonium bromide), and the intracellular cAMP production was assayed by HTRF method. cAMP kit HTRF (Nihon Schering) was used for the cAMP assay.
(2) Calculation of cAMP Production Inhibitory Activity;
The cAMP production of each sample was represented as a percentage (% of control), with the CRF (final concentration: 30 nM)-added cells defined as 100% (control).

[2] = tested on: CYP3A4; settings: human, hepatocytes, 48 h
Protocol: Evaluation of Drug Metabolizing Enzyme (CYP3A4) Inducibility Using Cryopreserved Human Hepatocyte
Cryopreserved hepatocytes (In Vitro Technology) were rapidly thawed while stirring at 37° C., and then ice-cooled William's Medium E (10% FBS, +PSG) was slowly added to the cells prior to centrifugation at 500 rpm for 5 minutes. After removing the supernatant, the obtained hepatocytes were diluted with ice-cooled William's Medium E to a concentration of 5×10^5 cells/mL, seeded on a 48-well collagen coated plate (BD Biosciences) at 1×10^5 cells/cm^2 and incubated for about 24 hours at 37° C., 5% CO2, after which the medium was changed with Hepato-STIM™ (BD Biosciences) (+EGF, PSG, −FBS) and culture was maintained for another 24 hours under conditions of 37° C., 5% CO2. At approximately 48 hours after the cell seeding, the test compound or rifampicin (SIGMA, positive control) in the form of a diluted solution (using Hepato-STIM™ (+EGF, PSG, −FBS)) was added, hepatocyte were incubated for about 24 hours under conditions of 37° C., 5% CO2, and the culture medium was changed with medium containing a freshly prepared dilution of the test compound or rifampicin prior to further incubation for 24 hours under the same conditions. After incubation, the cells were washed once with PBS, and the total RNA was extracted using a Qiagen RNeasy Mini kit (Qiagen). The cDNA was synthesized by reverse-transcription of extracted using TaqMan Reverse Transcription Reagents (Applied Biosystems). The reverse transcription reaction was carried out using oligo dT as primer, with treatment at 25° C. for 10 minutes followed by treatment at 48° C. for 60 minutes, after which the reverse transcriptase was inactivated by treatment at 95° C. for 10 minutes. The obtained cDNA was supplied to a PCR using a Gene Amp PCR system 9700. The obtained cDNA was quantitated using an SYBR Green PCR Core Reagents kit (Applied Biosystems), and the human CYP3A4 and GAPDH mRNA was quantitated using an ABI7700 (Applied Biosystems). The abbreviations used in the test example are explained below. • FBS: Fetal Bovine Serum • PSG: Penicillin (100 U/ml), Streptomycin (100 μg/ml), Glutamine (2 mM) • EGF: Epidermal Growth Factor • GAPDH: Glyceraldehyde-3-Phosphate Dehydrogenase
(2) Calculation of CYP3A4 Inducibility:
Next, for comparison of each test run, the differences between the value of the CYP3A4 mRNA amount divided by the GAPDH mRNA amount with addition of the test compound at various concentrations and with addition of the negative control were calculated as percentages, with 100% being defined as the difference between the values of the CYP3A4 mRNA amount divided by the GAPDH mRNA amount for the positive control and negative control, to determine the inducibility of each test compound.

[3] = target: T1, human CRFR1 (Homo sapiens, UniProt P34998); test: CRFR binding experiment (125I-CRF, SPA, membrane fraction of CRFR1-expressing HEK293 cells); settings: 100 pM 125I-CRF, read-out: CRF1 receptor binding affinity IC50
T1 construct: The full-length CRFR1 gene was obtained by PCR using human brain cDNA library; expressed in transfected cells
T1 sequence (P34998 24-415): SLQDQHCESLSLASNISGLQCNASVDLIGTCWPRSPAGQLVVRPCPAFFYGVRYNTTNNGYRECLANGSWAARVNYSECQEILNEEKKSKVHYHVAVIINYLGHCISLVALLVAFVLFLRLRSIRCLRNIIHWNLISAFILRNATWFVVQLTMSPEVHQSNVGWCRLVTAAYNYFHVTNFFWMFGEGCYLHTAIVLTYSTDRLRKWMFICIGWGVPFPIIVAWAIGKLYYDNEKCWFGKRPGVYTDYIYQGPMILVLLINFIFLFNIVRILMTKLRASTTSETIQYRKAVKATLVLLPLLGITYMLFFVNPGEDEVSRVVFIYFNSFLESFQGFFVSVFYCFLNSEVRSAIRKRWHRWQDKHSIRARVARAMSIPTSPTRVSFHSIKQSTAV
Protocol: <CRFR Binding Experiment>
The full-length CRFR1 gene was obtained by PCR using human brain cDNA library (QuickClone™ Clontech). […] The CRFR1 expression vector was introduced into HEK293 cell, and the resistant cells which proliferated in culture medium containing G418 (1 mg/ml) were cloned by the limiting dilution method. […] And the selected cells were used for the experiments.

SMILES	IC50 [1]	% of Positive Control (CYP3A4 inducibility) ([2]; 0.03 μM)	% of Positive Control (CYP3A4 inducibility) ([2]; 0.1 μM)	% of Positive Control (CYP3A4 inducibility) ([2]; 0.3 μM)	% of Positive Control (CYP3A4 inducibility) ([2]; 1 μM)	inducibility (CYP3A4), positive control defined as 100% ([2]; 1 μM)	% of Positive Control (CYP3A4 inducibility) ([2]; 3 μM)	% of Positive Control (CYP3A4 inducibility) ([2]; 10 μM)	IC50 [3]
CCCN(CC1CCOCC1)c1c(CC)nn2c(-c3c(OC)cc(COC)cc3OC)cccc12 [Example 13, N-7-[2,6-Dimethoxy-4-(methoxymethyl)phenyl]-2-ethylpyrazolo[1,5-a]pyridin-3-yl-N-propyl-N-tetrahydro-2H-4-pyranylmethylamine]	11 nM								
CCCN(CC1CCOCC1)c1c(CC)nn2c(-c3c(OC)cc(COCC)cc3OC)cccc12 [Example 23, N-7-[4-(Ethoxymethyl)-2,6-dimethoxyphenyl]-2-ethylpyrazolo[1,5-a]pyridin-3-yl-N-propyl-N-tetrahydro-2H-4-pyranylmethylamine]	6 nM								50 nM
COCc1cc(OC)c(-c2cccc3c(N(CC4CCOCC4)CC4CC4)c(OC)nn23)c(OC)c1 [Example 47, N-Cyclopropylmethyl-N-7-[2,6-dimethoxy-4-(methoxymethyl)phenyl]-2-methoxypyrazolo[1,5-a]pyridin-3-yl-N-tetrahydro-2H-4-pyranylmethylamine]	50 nM								
CCOCc1cc(OC)c(-c2cccc3c(N(CC4CCOCC4)CC4CC4)c(CC)nn23)c(OC)c1 [Example 3, N-Cyclopropylmethyl-N-7-[4-(ethoxymethyl)-2,6-dimethoxyphenyl]-2-ethylpyrazolo[1,5-a]pyridin-3-yl-N-tetrahydro-2H-4-pyranylmethylamine]	5.1 nM	3%	3%	7%	25%	≤ 40%	23%	34%	

These reach a lower IC50 [1]. Values come first.

IC50 [1]	% of Positive Control (CYP3A4 inducibility) ([2]; 0.03 μM)	% of Positive Control (CYP3A4 inducibility) ([2]; 0.1 μM)	% of Positive Control (CYP3A4 inducibility) ([2]; 0.3 μM)	% of Positive Control (CYP3A4 inducibility) ([2]; 1 μM)	inducibility (CYP3A4), positive control defined as 100% ([2]; 1 μM)	% of Positive Control (CYP3A4 inducibility) ([2]; 3 μM)	% of Positive Control (CYP3A4 inducibility) ([2]; 10 μM)	IC50 [3]	SMILES
4 nM	6%	7%	12%	20%	≤ 40%	36%	65%		CCc1nn2c(-c3c(OC)cc(COC)cc3OC)cccc2c1N(CC1CCOCC1)CC1CC1 [Example 1, N-Cyclopropylmethyl-N-7-[2,6-dimethoxy-4-(methoxymethyl)phenyl]-2-ethylpyrazolo[1,5-a]pyridin-3-yl-N-tetrahydro-2H-4-pyranylmethylamine]
3.5 nM								30 nM	COCc1cc(OC)c(-c2cccc3c(N(CC4CC4)CC4CCOC4)c(SC)nn23)c(OC)c1 (stereo not drawn) [Example 60, N-Cyclopropylmethyl-N-[7-[2,6-dimethoxy-4-(methoxymethyl)phenyl]-2-(methylsulfanyl)pyrazolo[1,5-a]pyridin-3-yl]-N-tetrahydro-3-furanylmethylamine]
3.5 nM	2%	3%	11%	25%	≤ 40%	49%	59%		COCc1cc(OC)c(-c2cccc3c(N(CC4CCOCC4)CC4CC4)c(SC)nn23)c(OC)c1 [Example 59, N-Cyclopropylmethyl-N-[7-[2,6-dimethoxy-4-(methoxymethyl)phenyl]-2-(methylsulfanyl)pyrazolo[1,5-a]pyridin-3-yl]-N-tetrahydro-2H-4-pyranylmethylamine]
